Assay results reported in patent US11369565B2, “Amino-pyrimidine skeletal muscle modulators” (Cytokinetics, Inc., priority 2010, dated 2022).

System: rabbit skeletal myofibrils (approximately 90% fast fibers)
Assay: Activation of fast skeletal myofibrils (PUMA coupled-enzyme ATPase assay at pCa25)
Type: biochemical
Settings: concentration at which the compound increased the enzymatic activity by 40%; calcium at pCa25; PM12 buffer pH 6.8
Procedure, shortened: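 In pH 6.8 PM12 buffer (12 mM Pipes, 2 mM MgCl2, 1 mM DTT), ADP from myosin regenerated via pyruvate kinase/lactate dehydrogenase, with absorbance change at 340 nm from NADH oxidation as read-out. Calcium set at pCa25; Triton-washed rabbit skeletal myofibrils (about 90% fast fibres) used.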

| Compound | Mean AC1.4 |
| --- | --- |
| CC(C)(Nc1ncc(-c2cnc(N)nc2)cn1)c1ncccc1F [[5-(2-aminopyrimidin-5-yl)pyrimidin-2-yl][1-(3-fluoro(2-pyridyl))-isopropyl]amine] | D (D=>20 uM) |
| CC(C)(Nc1ncc(-c2ccc3[nH]nc(N)c3c2)cn1)c1ncccc1F [[5-(3-amino(1H-indazol-5-yl))pyrimidin-2-yl][1-(3-fluoro(2-pyridyl))-isopropyl]amine] | A (A=<1 uM) |
| CC(C)(CNc1ncc(-c2ccc3[nH]nc(N)c3c2)cn1)c1ccc(F)cc1 [[5-(3-amino(1H-indazol-5-yl))pyrimidin-2-yl][2-(4-fluorophenyl)-2-methylpropyl]amine] | A (A=<1 uM) |
| CC(C)(C)Nc1ncc(-c2ccc3[nH]nc(N)c3c2)cn1 [[5-(3-amino(1H-indazol-5-yl))pyrimidin-2-yl]tert-butyl)amine] | B (B=1-10 uM) |
| Nc1cnc(-c2cnc(NC[C@]3(c4ncccc4F)C[C@H](F)C3)nc2)cn1 [[5-(5-aminopyrazin-2-yl)pyrimidin-2-yl]{[3-fluoro-1-(3-fluoro(2-pyridyl))cyclobutyl]methyl}amine] | B (B=1-10 uM) |
| Nc1cncc(-c2cnc(NC[C@]3(c4ncccc4F)C[C@H](F)C3)nc2)n1 [[5-(6-aminopyrazin-2-yl)pyrimidin-2-yl]{[3-fluoro-1-(3-fluoro(2-pyridyl))cyclobutyl]methyl}amine] | B (B=1-10 uM) |
| Nc1ccc(-c2cnc(NC[C@]3(c4ncccc4F)C[C@H](F)C3)nc2)nn1 [[5-(6-aminopyridazin-3-yl)pyrimidin-2-yl]{[3-fluoro-1-fluoro(2-pyridyl))cyclobutyl]methyl}amine] | B (B=1-10 uM) |
| Fc1cc2[nH]ncc2cc1-c1cnc(NC2(c3ncccc3F)CCC2)nc1 [[5-(6-fluoro(1H-indazol-5-yl))pyrimidin-2-yl][(3-fluoro(2-pyridyl))cyclobutyl]amine] | B (B=1-10 uM) |
| Fc1cccnc1C1(Nc2nccc(C(F)(F)F)n2)CCC1 [[(3-fluoro(2-pyridyl))cyclobutyl][4-(trifluoromethyl)pyrimidin-2-yl]amine] | D (D=>20 uM) |
| Fc1cccnc1C1(Nc2ncc3ccccc3n2)CCC1 [[(3-fluoro(2-pyridyl))cyclobutyl]quinazolin-2-ylamine] | D (D=>20 uM) |
| Fc1ccc(C2(Nc3nccc(C(F)(F)F)n3)CCC2)cc1 [[(4-fluorophenyl)cyclobutyl][4-(trifluoromethyl)pyrimidin-2-yl]amine] | C (C=10-20 uM) |
| Fc1ccc(C2(Nc3ncc4cn[nH]c4n3)CCC2)cc1 [[(4-fluorophenyl)cyclobutyl]pyrazolo[5,4-d]pyrimidin-6-ylamine] | D (D=>20 uM) |
| CCOC(=O)c1cnn(-c2cnc(NCC3(c4ncccc4F)CCC3)nc2)c1 [ethyl 1-[2-({[(3-fluoro-2-pyridyl)cyclobutyl]methyl}amino)pyrimidin-5-yl] pyrazole-4-carboxylate] | D (D=>20 uM) |
| CCOC(=O)c1cc2cnc(NCC3(c4ncccc4F)CCC3)nc2s1 [ethyl 2-({[(3-fluoro-2-pyridyl)cyclobutyl]methyl}amino) thiopheno[2,3-d]pyrimidine-6-carboxylate] | D (D=>20 uM) |
| CCOC(=O)c1csc(-c2cnc(NCC3(c4ncccc4F)CCC3)nc2)n1 [ethyl 2-[2-({[(3-fluoro-2-pyridyl)cyclobutyl]methyl}amino)pyrimidin-5-yl]-1,3-thiazole-4-carboxylate] | D (D=>20 uM) |
| CCOC(=O)c1cc(-c2cnc(NC(C)(C)c3ncccc3Cl)nc2)no1 [ethyl 3-(2-{[1-(3-chloro(2-pyridyl))-isopropyl]amino}pyrimidin-5-yl)isoxazole-5-carboxylate] | D (D=>20 uM) |
| CCOC(=O)c1noc(-c2cnc(NC(C)(C)c3ncccc3Cl)nc2)n1 [ethyl 5-(2-{[1-(3-chloro(2-pyridyl))-isopropyl]amino}pyrimidin-5-yl)-1,2,4-oxadiazole-3-carboxylate] | D (D=>20 uM) |
| CCOC(=O)c1nnc(-c2cnc(NC(C)(C)c3ncccc3Cl)nc2)o1 [ethyl 5-(2-{[1-(3-chloro(2-pyridyl))-isopropyl]amino}pyrimidin-5-yl)-1,3,4-oxadiazole-2-carboxylate] | D (D=>20 uM) |
| COC(=O)c1ccn(-c2cnc(NC[C@]3(c4ncccc4F)C[C@H](F)C3)nc2)c1 [methyl 1-[2-({[3-fluoro-1-(3-fluoro(2-pyridyl))cyclobutyl]methyl}amino)pyrimidin-5-yl]pyrrole-3-carboxylate] | D (D=>20 uM) |
| COC(=O)Cc1ccc(F)c(-c2cnc(NC(C)(C)c3ncccc3F)nc2)c1 [methyl 2-[4-fluoro-3-(2-{[1-(3-fluoro(2-pyridyl))-isopropyl]amino}pyrimidin-5-yl)phenyl]acetate] | C (C=10-20 uM) |
| COC(=O)c1cnc(NCC(C)(C)c2ccc(F)cc2)nc1 [methyl 2-{[2-(4-fluorophenyl)-2-methylpropyl]amino}pyrimidine-5-carboxylate] | D (D=>20 uM) |
| COC(=O)CNC(=O)c1cnc(NCC2(c3ncccc3F)CCC2)nc1 [methyl 2-{[2-({[(3-fluoro-2-pyridyl)cyclobutyl]methyl}amino)pyrimidin-5-yl]carbonylamino} acetate] | D (D=>20 uM) |
| COC(=O)c1ccc(O)c(-c2cnc(NC[C@]3(c4ncccc4F)C[C@H](F)C3)nc2)c1 [methyl 3-[2-({[3-fluoro-1-(3-fluoro(2-pyridyl))cyclobutyl]methyl)amino)pyrimidin-5-yl]-4-hydroxybenzoate] | A (A=<1 uM) |
| COC(=O)c1nc(-c2cnc(NC(C)(C)c3ncccc3Cl)nc2)cn1C [methyl 4-(2-{[1-(3-chloro(2-pyridyl))-isopropyl}amino}pyrimidin-5-yl)-1-methylimidazole-2-carboxylate] | D (D=>20 uM) |
| COC(=O)c1cc(-c2cnc(NC(C)(C)c3ncccc3Cl)nc2)ncn1 [methyl 6-(2-{[1-(3-chloro(2-pyridyl))-isopropyl]amino}pyrimidin-5-yl)pyrimidine-4-carboxylate] | D (D=>20 uM) |
| CNC(=O)c1ccn(-c2cnc(NC[C@]3(c4ncccc4F)C[C@H](F)C3)nc2)c1 [{1-[2-({[3-fluoro-1-(3-fluoro(2-pyridyl))cyclobutyl]methyl}amino)pyrimidin-5-yl]pyrro1-3-yl}-N-methylcarboxamide] | B (B=1-10 uM) |
| CC(C)(Nc1nccc(-c2nccs2)n1)c1cccc(OC(F)F)n1 [{1-[6-(difluoromethoxyl)(2-pyridyl)]-isopropyl)(4-(1,3-thiazol-2-yl)]pyrimidin-2-yl)amine] | C (C=10-20 uM) |
| CNC(=O)c1ccnc(-c2cnc(NC[C@]3(c4ncccc4F)C[C@H](F)C3)nc2)c1 [{2-[2-({[3-fluoro-1-(3-fluoro(2-pyridyl))cyclobutyl]methyl}amino)pyrimidin-5-yl](4-pyridyl)}-N-methylcarboxamide] | B (B=1-10 uM) |
| CNC(=O)c1ccnc(-c2cnc(NC[C@]3(c4ncccc4F)C[C@H](F)C3)nc2)n1 [{2-[2-({[3-fluoro-1-(3-fluoro(2-pyridyl))cyclobutyl]methyl}amino)pyrimidin-5-yl]pyrimidin-4-yl}-N-methylcarboxamide] | B (B=1-10 uM) |
